According to patent US20030022820A1, “IN VIVO ACTIVATION OF TUMOR-SPECIFIC CYTOTOXIC T CELLS” (priority 1995, published 2003):

Experiments:
HLA-A2.1 = HLA-A2.1 (Homo sapiens, UniProt P04439, D140Y/D185E/D98H/E176V/E277Q/G131W/G231S/I119V/I121R/I166T/I218V/L300P/L318F/N151K/N90K/P208A/P217A/Q86G/Q94H/R138H/R169H/T345S); assay: Competition assay for peptide binding to HLA-A2.1 (inhibition of A clone 12 lysis of M1-pulsed EA2 targets)
A2.1/K^b-Tg mice = assay: Peptide priming of A2.1/K^b-Tg mice, lytic activity of peptide-specific CTL; assay type: in vivo
[1] = E:T 60:1, T2A2/K^b targets pulsed with two mg of peptide, highest of at least three individual mice
[2] = peptide-priming of A2.1/K^b-Tg mice

| Sequence | A2.1-binding activity / affinity, in words (HLA-A2.1) | Lytic Activity by Peptide-Specific CTL After Priming of A2.1/K^b-Tg Mice [Specific 51Cr release (%)] (A2.1/K^b-Tg mice; [1]) [%] | A2.1/K^b-restricted peptide-specific CTL response, in words (A2.1/K^b-Tg mice; [2]) | other results |
| --- | --- | --- | --- | --- |
| RMPEAAPPV [hu-wt-p53: 65-73] | high affinity | 85 | detectable | – |
| VAPAPAAPT [hu-wt-p53: 73-81] | – | 0 | – | – |
| AAPPVAPA [hu-wt-p53: 69-76] | – | – | – | Lytic Activity by Peptide-Specific CTL After Priming of A2.1/K^b-Tg Mice [Specific 51Cr release (%)] (A2.1/K^b-Tg mice; mouse, in vivo): 0% |
| ITLEDSSGNL [hu-wt-p53: 255-264] | intermediate | 3 | lack of CTL responsiveness | – |
| LMLSPDDIEQ [hu-wt-p53: 43-52] | – | 3 | – | – |
| LLPENNVLSPL [hu-wt-p53: 25-35] | high affinity | 47 | detectable | – |
| LLPENNVLS [hu-wt-p53: 25-33] | – | 3 | – | – |
| ILKEPVHGV [HIV-1 RT: 476-484, reference compound] | – | – | – | (%) [inhibition of A2.1-binding of M1 (58-66)] (HLA-A2.1): 72%; A2.1/K^b-restricted peptide-specific CTL response, in words (A2.1/K^b-Tg mice; mouse, in vivo): could mount an A2.1/K^b-restricted CTL response; Lytic Activity by Peptide-Specific CTL After Priming of A2.1/K^b-Tg Mice [Specific 51Cr release (%)] (A2.1/K^b-Tg mice; mouse, in vivo): 85% |
| PLDGEYFTL [hu-wt-p53: 322-330] | intermediate | 0 | lack of CTL responsiveness | – |
| AAPTPAAPA [hu-wt-p53: 78-86] | – | 0 | – | – |
| VLSPLPSQAM [hu-wt-p53: 31-40] | – | 0 | – | – |
| VLSPLPSQA [hu-wt-p53: 31-39] | – | 3 | – | – |
| RGYVYQGL [VSV-N: 52-59, reference compound] | – | – | – | (%) [inhibition of A2.1-binding of M1 (58-66)] (HLA-A2.1): 4% |
